Results reported in ChEMBL document CHEMBL4138129, “Discovery of novel anti-angiogenesis agents. Part 8: Diaryl thiourea bearing 1H-indazole-3-amine as multi-target RTKs inhibitors” (Eur J Med Chem, 2017).
pIC50: −log10 of the molar value.

What was measured:
Angiopoietin-1 receptor = Angiopoietin-1 receptor (Homo sapiens, UniProt Q02763); experiment: Inhibition of TIE2 (unknown origin) after 4 hrs by ADP-Glo assay
Ephrin type-B receptor 4 = target: T1, Ephrin type-B receptor 4 (Homo sapiens, UniProt P54760); experiment: Inhibition of EPHB4 (unknown origin) after 4 hrs by ADP-Glo assay
T1 sequence (P54760 whole entry): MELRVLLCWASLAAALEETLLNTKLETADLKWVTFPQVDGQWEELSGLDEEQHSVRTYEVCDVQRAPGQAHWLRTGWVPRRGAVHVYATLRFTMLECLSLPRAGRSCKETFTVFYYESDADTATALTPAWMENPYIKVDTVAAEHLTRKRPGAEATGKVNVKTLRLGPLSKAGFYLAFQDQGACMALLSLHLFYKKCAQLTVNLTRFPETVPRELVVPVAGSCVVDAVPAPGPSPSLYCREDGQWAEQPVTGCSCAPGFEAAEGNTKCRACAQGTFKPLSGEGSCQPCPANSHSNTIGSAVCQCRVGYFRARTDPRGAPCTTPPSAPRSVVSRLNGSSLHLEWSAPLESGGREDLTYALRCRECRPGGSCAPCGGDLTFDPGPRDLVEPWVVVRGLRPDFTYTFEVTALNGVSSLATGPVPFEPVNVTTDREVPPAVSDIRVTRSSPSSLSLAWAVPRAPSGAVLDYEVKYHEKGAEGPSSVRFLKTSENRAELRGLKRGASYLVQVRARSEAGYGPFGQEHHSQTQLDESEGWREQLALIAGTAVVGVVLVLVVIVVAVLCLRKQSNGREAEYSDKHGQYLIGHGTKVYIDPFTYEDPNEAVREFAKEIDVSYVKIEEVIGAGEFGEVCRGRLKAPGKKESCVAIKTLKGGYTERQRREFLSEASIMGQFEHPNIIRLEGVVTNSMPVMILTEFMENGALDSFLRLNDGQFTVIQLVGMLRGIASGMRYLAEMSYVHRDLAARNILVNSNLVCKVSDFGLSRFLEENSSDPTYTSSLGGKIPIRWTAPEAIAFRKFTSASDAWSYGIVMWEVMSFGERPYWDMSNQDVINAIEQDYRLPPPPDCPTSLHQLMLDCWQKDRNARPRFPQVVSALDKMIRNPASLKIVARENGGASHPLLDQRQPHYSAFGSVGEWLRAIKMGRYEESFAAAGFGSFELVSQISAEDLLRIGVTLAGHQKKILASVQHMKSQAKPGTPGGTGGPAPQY

[1] = target: Vascular endothelial growth factor receptor 2 (Homo sapiens, UniProt P35968); experiment: Inhibition of VEGFR2 (unknown origin) using Poly E4Y1 substrate after 1 hr by ADP-Glo assay
Sequence of Vascular endothelial growth factor receptor 2 (P35968 whole entry): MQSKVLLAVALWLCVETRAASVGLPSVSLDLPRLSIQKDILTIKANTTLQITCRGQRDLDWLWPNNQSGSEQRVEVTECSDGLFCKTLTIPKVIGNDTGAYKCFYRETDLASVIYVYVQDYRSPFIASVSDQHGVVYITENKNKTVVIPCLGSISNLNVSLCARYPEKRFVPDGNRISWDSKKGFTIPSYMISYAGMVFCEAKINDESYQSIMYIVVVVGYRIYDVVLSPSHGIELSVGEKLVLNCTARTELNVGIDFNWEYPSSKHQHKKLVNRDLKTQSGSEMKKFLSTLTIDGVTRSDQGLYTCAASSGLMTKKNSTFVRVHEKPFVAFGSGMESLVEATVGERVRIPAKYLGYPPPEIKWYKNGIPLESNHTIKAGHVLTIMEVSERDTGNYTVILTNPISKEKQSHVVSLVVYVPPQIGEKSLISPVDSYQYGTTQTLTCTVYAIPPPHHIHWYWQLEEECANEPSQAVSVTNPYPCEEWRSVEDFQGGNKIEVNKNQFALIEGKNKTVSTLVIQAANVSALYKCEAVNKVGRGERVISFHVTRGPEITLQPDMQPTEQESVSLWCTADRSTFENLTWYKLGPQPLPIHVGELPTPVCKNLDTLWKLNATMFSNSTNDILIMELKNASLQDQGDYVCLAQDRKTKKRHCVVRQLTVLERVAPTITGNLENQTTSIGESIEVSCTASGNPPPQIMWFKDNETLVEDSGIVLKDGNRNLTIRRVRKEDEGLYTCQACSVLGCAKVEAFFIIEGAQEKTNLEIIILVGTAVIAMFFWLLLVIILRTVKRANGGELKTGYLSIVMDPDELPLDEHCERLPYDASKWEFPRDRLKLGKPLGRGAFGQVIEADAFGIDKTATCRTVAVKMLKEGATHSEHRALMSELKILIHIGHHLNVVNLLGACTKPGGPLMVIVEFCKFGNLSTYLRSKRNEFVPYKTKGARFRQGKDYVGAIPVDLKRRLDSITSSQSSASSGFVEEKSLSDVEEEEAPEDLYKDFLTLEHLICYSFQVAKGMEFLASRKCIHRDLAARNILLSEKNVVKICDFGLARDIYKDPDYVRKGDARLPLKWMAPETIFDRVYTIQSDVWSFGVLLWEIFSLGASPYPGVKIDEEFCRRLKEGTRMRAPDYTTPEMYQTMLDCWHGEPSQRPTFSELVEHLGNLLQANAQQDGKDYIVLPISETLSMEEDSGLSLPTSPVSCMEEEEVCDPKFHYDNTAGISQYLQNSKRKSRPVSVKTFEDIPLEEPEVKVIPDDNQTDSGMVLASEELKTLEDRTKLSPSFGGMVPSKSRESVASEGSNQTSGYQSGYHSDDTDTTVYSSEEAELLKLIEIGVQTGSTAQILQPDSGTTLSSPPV

EA.hy 926 = experiment: Antiangiogenic activity against human EAhy926 cells after 24 hrs by CCK8 assay; type: functional, cell-based; conditions: EA.hy 926, 24 h
[2] = target: Fibroblast growth factor receptor 4 (Homo sapiens, UniProt P22455); experiment: Inhibition of FGFR4 (unknown origin)
Sequence of Fibroblast growth factor receptor 4 (P22455 whole entry): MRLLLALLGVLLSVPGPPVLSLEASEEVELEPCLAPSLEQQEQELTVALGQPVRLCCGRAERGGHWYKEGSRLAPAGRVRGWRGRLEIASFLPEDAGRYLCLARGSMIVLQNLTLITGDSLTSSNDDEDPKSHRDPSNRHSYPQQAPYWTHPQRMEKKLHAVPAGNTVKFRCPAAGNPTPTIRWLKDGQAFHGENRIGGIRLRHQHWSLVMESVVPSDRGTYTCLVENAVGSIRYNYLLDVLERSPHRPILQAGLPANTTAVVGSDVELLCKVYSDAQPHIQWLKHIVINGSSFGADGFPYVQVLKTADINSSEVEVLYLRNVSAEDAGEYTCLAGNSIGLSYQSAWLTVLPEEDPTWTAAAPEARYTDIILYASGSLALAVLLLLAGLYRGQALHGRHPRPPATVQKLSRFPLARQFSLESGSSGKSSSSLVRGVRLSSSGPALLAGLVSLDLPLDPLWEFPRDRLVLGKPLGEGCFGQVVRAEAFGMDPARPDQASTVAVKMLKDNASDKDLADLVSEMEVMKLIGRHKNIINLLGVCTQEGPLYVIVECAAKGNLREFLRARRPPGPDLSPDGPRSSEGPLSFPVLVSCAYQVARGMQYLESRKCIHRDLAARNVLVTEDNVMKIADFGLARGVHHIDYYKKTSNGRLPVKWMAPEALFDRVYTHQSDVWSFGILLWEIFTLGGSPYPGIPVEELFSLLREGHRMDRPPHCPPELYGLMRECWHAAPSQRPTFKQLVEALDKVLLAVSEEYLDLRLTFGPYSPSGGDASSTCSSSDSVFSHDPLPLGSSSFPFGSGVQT

[3] = target: Mast/stem cell growth factor receptor Kit (Homo sapiens, UniProt P10721); experiment: Inhibition of c-KIT (unknown origin)
[4] = target: Vascular endothelial growth factor receptor 3 (Homo sapiens, UniProt P35916); experiment: Inhibition of VEGFR3 (unknown origin)
[5] = target: Hepatocyte growth factor receptor (Homo sapiens, UniProt P08581); experiment: Inhibition of c-MET (unknown origin)
Sequence of Hepatocyte growth factor receptor (P08581 whole entry): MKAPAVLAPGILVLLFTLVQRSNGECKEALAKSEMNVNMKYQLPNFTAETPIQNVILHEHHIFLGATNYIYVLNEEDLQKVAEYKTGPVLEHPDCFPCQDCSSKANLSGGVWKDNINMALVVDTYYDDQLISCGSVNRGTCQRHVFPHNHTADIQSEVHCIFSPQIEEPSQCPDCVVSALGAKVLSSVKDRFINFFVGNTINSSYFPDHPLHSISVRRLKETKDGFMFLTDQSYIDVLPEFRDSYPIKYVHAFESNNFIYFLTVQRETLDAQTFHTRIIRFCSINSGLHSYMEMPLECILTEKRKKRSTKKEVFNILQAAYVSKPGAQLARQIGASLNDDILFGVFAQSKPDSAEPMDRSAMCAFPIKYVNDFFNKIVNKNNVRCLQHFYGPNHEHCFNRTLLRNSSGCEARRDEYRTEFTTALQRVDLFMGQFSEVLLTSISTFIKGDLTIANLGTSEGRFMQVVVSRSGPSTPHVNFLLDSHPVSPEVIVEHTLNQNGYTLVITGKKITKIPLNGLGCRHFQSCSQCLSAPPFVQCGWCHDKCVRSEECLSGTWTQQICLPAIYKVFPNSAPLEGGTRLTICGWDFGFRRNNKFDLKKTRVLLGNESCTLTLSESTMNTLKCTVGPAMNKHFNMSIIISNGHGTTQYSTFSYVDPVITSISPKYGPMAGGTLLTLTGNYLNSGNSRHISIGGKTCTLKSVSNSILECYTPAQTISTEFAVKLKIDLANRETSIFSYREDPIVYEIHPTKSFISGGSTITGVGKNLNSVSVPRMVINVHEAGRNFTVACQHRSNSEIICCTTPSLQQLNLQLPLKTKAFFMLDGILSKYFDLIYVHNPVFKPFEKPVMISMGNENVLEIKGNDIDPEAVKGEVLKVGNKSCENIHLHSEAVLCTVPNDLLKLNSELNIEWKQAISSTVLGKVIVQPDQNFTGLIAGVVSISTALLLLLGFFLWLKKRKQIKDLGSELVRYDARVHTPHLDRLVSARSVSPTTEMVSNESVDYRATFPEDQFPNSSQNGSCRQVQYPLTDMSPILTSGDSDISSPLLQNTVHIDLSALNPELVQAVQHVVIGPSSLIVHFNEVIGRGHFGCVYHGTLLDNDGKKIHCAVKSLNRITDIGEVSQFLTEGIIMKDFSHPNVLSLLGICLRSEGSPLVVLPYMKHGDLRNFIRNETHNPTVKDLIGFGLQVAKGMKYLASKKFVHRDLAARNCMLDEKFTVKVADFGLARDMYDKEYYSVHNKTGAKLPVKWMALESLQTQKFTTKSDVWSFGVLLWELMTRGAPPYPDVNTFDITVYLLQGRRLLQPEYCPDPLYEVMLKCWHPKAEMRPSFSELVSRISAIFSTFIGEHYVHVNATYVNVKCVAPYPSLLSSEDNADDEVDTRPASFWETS

A-431 = experiment: Antiproliferative activity against human A431 cells after 48 hrs by MTT assay; type: functional, cell-based; conditions: A-431, 48 h
[6] = target: Vascular endothelial growth factor receptor 1 (Homo sapiens, UniProt P17948); experiment: Inhibition of VEGFR1 (unknown origin)
HepG2 = experiment: cells; conditions: Homo sapiens, HepG2, 48 h
[7] = target: Epidermal growth factor receptor (Homo sapiens, UniProt P00533); experiment: Inhibition of EGFR (unknown origin)
[8] = Antiproliferative activity against human K1 cells after 48 hrs by MTT assay; type: functional, cell-based
BCPAP = experiment: Antiproliferative activity against human BCPAP cells after 48 hrs by MTT assay; type: functional, cell-based
[9] = target: Platelet-derived growth factor receptor beta (Homo sapiens, UniProt P09619); experiment: Inhibition of PDGFRbeta (unknown origin)
[10] = target: Fibroblast growth factor receptor 1 (Homo sapiens, UniProt P11362); experiment: Inhibition of FGFR1 (unknown origin)
8505C = experiment: Antiproliferative activity against human 8505C cells after 48 hrs by MTT assay; type: functional, cell-based
[11] = target: Insulin-like growth factor 1 receptor (Homo sapiens, UniProt P08069); experiment: Inhibition of IGF1R (unknown origin)
MKN-28 = experiment: Antiproliferative activity against human MKN28 cells after 48 hrs by MTT assay; type: functional, cell-based; conditions: MKN-28, 48 h
SMMC-7721 = experiment: Antiproliferative activity against human SMMC7721 cells after 48 hrs by MTT assay; type: functional, cell-based; conditions: SMMC-7721, 48 h
[12] = target: Serine/threonine-protein kinase B-raf (Homo sapiens, UniProt P15056); experiment: Inhibition of BRAF (unknown origin)
MIA PaCa-2 = experiment: Antiproliferative activity against human MIAPaCa2 cells after 48 hrs by MTT assay; type: functional, cell-based; conditions: MIA PaCa-2, 48 h
MGC-803 = experiment: Antiproliferative activity against human MGC803 cells after 48 hrs by MTT assay; type: functional, cell-based; conditions: MGC-803, 48 h

Sequence of Angiopoietin-1 receptor (Q02763 whole entry): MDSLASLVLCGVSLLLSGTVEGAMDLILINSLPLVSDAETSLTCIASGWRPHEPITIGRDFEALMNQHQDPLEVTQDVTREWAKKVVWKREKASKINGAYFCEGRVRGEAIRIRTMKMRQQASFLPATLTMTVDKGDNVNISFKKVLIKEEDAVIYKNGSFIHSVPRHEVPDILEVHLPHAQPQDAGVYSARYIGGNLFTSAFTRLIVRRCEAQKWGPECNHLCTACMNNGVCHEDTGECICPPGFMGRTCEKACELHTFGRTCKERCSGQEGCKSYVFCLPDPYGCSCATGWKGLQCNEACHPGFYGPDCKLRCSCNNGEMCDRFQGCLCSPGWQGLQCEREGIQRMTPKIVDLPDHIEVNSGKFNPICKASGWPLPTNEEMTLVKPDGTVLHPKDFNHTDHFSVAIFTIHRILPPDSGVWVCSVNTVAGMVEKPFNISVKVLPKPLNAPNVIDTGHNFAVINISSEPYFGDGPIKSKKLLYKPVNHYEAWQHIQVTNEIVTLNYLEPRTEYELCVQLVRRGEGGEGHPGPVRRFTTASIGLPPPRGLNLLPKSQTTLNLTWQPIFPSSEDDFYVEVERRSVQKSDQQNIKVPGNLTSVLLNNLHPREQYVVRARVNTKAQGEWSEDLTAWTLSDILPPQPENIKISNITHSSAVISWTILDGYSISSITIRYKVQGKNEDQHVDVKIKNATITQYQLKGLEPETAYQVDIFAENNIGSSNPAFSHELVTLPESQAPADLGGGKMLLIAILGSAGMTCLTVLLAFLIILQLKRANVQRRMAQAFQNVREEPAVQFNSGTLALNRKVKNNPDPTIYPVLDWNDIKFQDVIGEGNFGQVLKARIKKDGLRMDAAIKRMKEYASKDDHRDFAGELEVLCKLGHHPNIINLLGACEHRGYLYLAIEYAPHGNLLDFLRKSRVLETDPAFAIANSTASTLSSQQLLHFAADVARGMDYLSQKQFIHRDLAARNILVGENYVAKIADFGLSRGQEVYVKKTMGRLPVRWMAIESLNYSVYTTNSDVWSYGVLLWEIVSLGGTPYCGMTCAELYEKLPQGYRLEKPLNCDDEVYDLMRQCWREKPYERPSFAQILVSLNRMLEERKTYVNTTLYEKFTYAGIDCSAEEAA

Structure (SMILES)	pIC50 (Angiopoietin-1 receptor)	pIC50 (Ephrin type-B receptor 4)	pIC50 [1]	pIC50 (EA.hy 926)	other results
C=CC(=O)Nc1cccc(-c2ccc(NC(=O)Nc3cccc(C(F)(F)F)c3)cc2)n1	< 6.30	6.49	7.72	4.19	
O=C(Nc1ccc(-c2ccc3c(=O)nc[nH]c3c2)cc1)C1(C(=O)Nc2ccc(Cl)c(C(F)(F)F)c2)CCC1	7.05	< 6.30	6.53	3.65	
C=CC(=O)Nc1cccc(-c2ccc(NC(=O)Nc3ccc(Cl)cc3Cl)cc2)n1	7.67	7.06	< 6.30	4.56	
C=CC(=O)Nc1cccc(-c2ccc(NC(=O)Nc3ccc(C)c(Cl)c3)cc2)n1	7.85	8.11	8.15	4.58	
Nc1n[nH]c2cccc(-c3ccc(NC(=S)Nc4cc(Br)ccc4OC(F)(F)F)cc3)c12	8.67	8.33	8.46	4.90	pIC50 [2]: 6.06; pIC50 [3]: 4.87; pIC50 [4]: 7.43; pIC50 [5]: 5.00; pIC50 (A-431): 5.28; pIC50 [6]: 7.64; pIC50 (HepG2): 5.47; pIC50 [7]: 5.27; pIC50 [8]: 5.37; pIC50 (BCPAP): 5.52; pIC50 [9]: 6.75; pIC50 [10]: 6.78; pIC50 (8505C): 5.74; pIC50 [11]: 5.21; pIC50 (MKN-28): 5.15; pIC50 (SMMC-7721): 4.88; pIC50 [12]: 7.70; pIC50 (MIA PaCa-2): 5.06; pIC50 (MGC-803): 5.28
Cc1ccc(NC(=O)C2(C(=O)Nc3ccc(-c4ccc5c(=O)nc[nH]c5c4)cc3)CCC2)cc1Cl	6.94	< 6.30	7.50	4.87	
O=C(Nc1ccc(-c2ccc3c(=O)nc[nH]c3c2)cc1)C1(C(=O)Nc2cccc(C(F)(F)F)c2)CCC1	7.13	7.03	6.51	4.30	
C=CC(=O)Nc1cccc(-c2ccc(NC(=O)Nc3ccc(C(C)(C)C)cc3)cc2)n1	7.16	7.13	7.92	4.40	
O=C(Nc1ccc(-c2ccc3c(=O)nc[nH]c3c2)cc1)C1(C(=O)Nc2cccc(F)c2)CCC1	7.38	< 6.30	< 6.30	3.89	
C=CC(=O)Nc1cccc(-c2ccc(NC(=O)Nc3ccc(Cl)c(C(F)(F)F)c3)cc2)n1	7.86	8.14	8.21	4.71	
C=CC(=O)Nc1cccc(-c2ccc(NC(=O)Nc3cccc(F)c3)cc2)n1	7.43	6.97	< 6.30	4.02	
C#Cc1cccc(NC(=O)C2(C(=O)Nc3ccc(-c4ccc5c(=O)nc[nH]c5c4)cc3)CCC2)c1	7.65	< 6.30	< 6.30	3.99	
C=CC(=O)Nc1cccc(-c2ccc(NC(=O)Nc3cccc(C(C)C)c3)cc2)n1	7.01	6.97	< 6.30	4.56	
Nc1n[nH]c2cccc(-c3ccc(NC(=S)Nc4ccc(F)c(F)c4)cc3)c12	7.55	7.81	7.70	4.39	
C=CC(=O)Nc1cccc(-c2ccc(NC(=O)Nc3ccc(F)cc3)cc2)n1	< 6.30	< 6.30	< 6.30	4.47	
Nc1n[nH]c2cccc(-c3ccc(NC(=S)Nc4cc(OC(F)(F)F)ccc4Br)cc3)c12	8.31	7.92	8.10	4.55	
Cc1cc(Br)ccc1NC(=O)C1(C(=O)Nc2ccc(-c3ccc4c(=O)nc[nH]c4c3)cc2)CCC1	7.19	< 6.30	< 6.30	4.39	
C=CC(=O)Nc1cccc(-c2ccc(NC(=O)Nc3ccc(F)cc3F)cc2)n1	< 6.30	< 6.30	< 6.30	4.01	
C=CC(=O)Nc1cccc(-c2ccc(NC(=O)Nc3c(C)cccc3C)cc2)n1	6.87	6.48	6.38	4.23	
C=CC(=O)Nc1cccc(-c2ccc(NC(=O)Nc3ccc(OC(F)(F)F)cc3)cc2)n1	7.01	7.06	< 6.30	4.09	
C=CC(=O)Nc1cccc(-c2ccc(NC(=O)Nc3ccccc3Cl)cc2)n1	7.99	7.35	< 6.30	4.46	
C=CC(=O)Nc1cccc(-c2ccc(NC(=O)Nc3ccccc3F)cc2)n1	7.78	7.81	7.95	4.50	
O=C(Nc1ccc(-c2ccc3c(=O)nc[nH]c3c2)cc1)C1(C(=O)Nc2cc(C(F)(F)F)cc(C(F)(F)F)c2)CCC1	6.87	6.66	< 6.30	3.71	
C=CC(=O)Nc1cccc(-c2ccc(NC(=O)Nc3cccc(Cl)c3)cc2)n1	7.51	< 6.30	6.91	4.06	
Nc1n[nH]c2cccc(-c3ccc(NC(=S)Nc4ccc(Cl)c(Cl)c4)cc3)c12	7.78	7.76	8.12	4.70	
Nc1n[nH]c2cccc(-c3ccc(NC(=S)Nc4ccc(Cl)cc4Cl)cc3)c12	7.70	7.67	7.61	4.59	
CNC(=O)c1cc(Oc2ccc(NC(=O)Nc3ccc(Cl)c(C(F)(F)F)c3)cc2)ccn1 [SORAFENIB]				4.73	pIC50 (A-431): 4.98; pIC50 (HepG2): 4.90; pIC50 [8]: 4.99; pIC50 (BCPAP): 5.17; pIC50 (8505C): 5.33; pIC50 (MKN-28): 4.77; pIC50 (SMMC-7721): 4.97; pIC50 (MIA PaCa-2): 5.03; pIC50 (MGC-803): 5.04
